In PMC9098178, “SAR of Novel 3-Arylisoquinolinones: meta-Substitution on the Aryl Ring Dramatically Enhances Antiproliferative Activity through Binding to Microtubules” (Journal of Medicinal Chemistry, 2022):
pIC50: −log10 of the molar value.

Experiments:
Type in all cases: cell-based, human
HUVECs = experiment: Cytoskeleton immunofluorescence; details: 0.5, 1 μM, 24 h
Source text: The disruption was characterized by shortened microtubules with outer blebbing filled with tubulin and thicker and brighter actin fibers (stress fibers). Many rounded and retracted cells were also observed in HUVECs treated with 4. […] Taken together, 4 induced morphological alterations in endothelial cells are possibly the reason behind the disruption of the preexisting tubes of HUVECs cultured on Matrigel. […] Throughout the next steps, all of the reagents were removed by washing, flicking, and gently dabbing the slide against a tissue paper. The cells were then washed with PBS containing calcium and magnesium (Sigma, Cat# D1283), fixed with 10% formalin solution (Sigma, Cat# HT5014) for 15 min, and permeabilized with 0.2% (v/v) Triton X-100 for 5 min. Next, the cells were exposed to 1 h incubation with blocking buffer made of 10% (v/v) normal goat serum (Vector Laboratories, Cat# S-1000), 1% (w/v) bovine serum albumin (Sigma, Cat# A9418), and 0.3 M glycine in PBS-T (0.05% Tween-20 in PBS). The cells were then incubated with rabbit α-tubulin primary antibody (1:1000 in the blocking buffer, Abcam, Cat# ab52866) for 2 h at RT after three times washing with PBS-T, each for 5 min. […] Finally, the cytoskeleton was visualized at 63x, oil-based magnification using fluorescence, inverted microscope (Leica DMI6000B, Leica Microsystems). […]

MCF-7 = experiment: SRB antiproliferative assay, MCF-7; details: Homo sapiens, MCF7, 96 h treatment, mean ± SEM, read-out: IC50 MCF-7 (prescreen)
Procedure: Initially, the human breast cancer cell line MCF-7 was used in a prescreen analysis of the anticancer activity of 3-arylisoquinolinones. The cells were treated with serial concentrations of compounds 2–8 for 96 h prior to the assessment of proliferation using the sulforhodamine B (SRB) assay. For each compound, the concentration required to inhibit cell growth by 50% compared to that of the untreated control cells (IC50) was determined (Table 1).
(§1) All cell lines used in the study were human-derived and purchased from ATCC (Manassas, USA). Breast adenocarcinoma MCF-7 and MDA-MB-231 cell lines were cultured in DMEM. Hepatocellular carcinoma HepG2 and SNU423 cell lines were grown in MEME combined with 1% (v/v) nonessential amino acids and RPMI supplemented with 2 mM glutamine, respectively. Lung adenocarcinoma A549 and colorectal carcinoma HCT116 cells were grown in RPMI (+2 mM glutamine). All previous media were further supplemented with 10% heat-inactivated fetal bovine serum. The immortalized, normal liver THLE-3 cells were grown in BEGM (Lonza, Cat# CC-3170) onto precoated vessels according to ATCC’s instructions. Human umbilical vein endothelial cells (HUVECs) were cultured in EGM-2 (Lonza, Cat# CC-3162). All of the cells were maintained at 37 °C and 5% CO2 in a humidified incubator.
(§2) Screening of the antiproliferative activity of 3-arylisoquinolinones was performed using the SRB assay as previously described.[56] Exponentially growing HepG2, SNU423, MDA-MB-231, MCF-7, A549, HCT116, THLE-3, and HUVECs were seeded in 96-well plates at densities of 3000, 2000, 1500, 2500, 1000, 1000, 4000, and 4000 cells/well, respectively. These densities were experimentally selected so that the DMSO-treated cells (control) were approximately 80–90% confluent at the assay’s endpoint, and their optical density (OD) values fell within the assay’s linear range. After overnight incubation, the cells were treated with a range of concentrations of the respective compounds for 96 h, 24 h followed by 72 h compound-free incubation or 24 h (for HUVECs only). After treatment, cell monolayers were fixed with 10% (w/v) trichloroacetic acid for 1 h at 4 °C, washed, and dried. Then, the cells were exposed to 0.4% (w/v) SRB dye (prepared in 1% (v/v) acetic acid; Botium, Cat# 80100) for 15 min followed by several 1% acetic acid washing and then drying. Finally, the cellular protein-bound SRB was thoroughly dissolved in 10 mM Tris base, and the OD values were read at 510 nm using a plate reader (μQuant Microplate Spectrophotometer, Biotek, U.K.) coupled with Gen5 software (BioTek, U.K.). Compound-induced changes in cell growth were inferred from changes in OD values. Cell growth was calculated using the following formula: cell growth (%) = (ODtest/ODcontrol) × 100.

MDA-MB-231 = experiment: SRB antiproliferative assay, MDA-MB-231; details: Homo sapiens, MDA-MB-231, 96 h treatment, mean ± SEM, read-out: IC50 MDA-MB-231
Procedure: (§3) In light of this substantial change in activity between the meta and para compounds, a more comprehensive analysis of the antiproliferative activity was performed for the meta-/para-3-arylisoquinolinone pairs 2 and 3, 4, and 5, as well as 6. A panel of breast (MDA-MB-231), liver (HepG2, SNU423), lung (A549), and colon (HCT116) cancer cell lines were treated with the five 3-arylisoquinolinone analogs for 96 h followed by the SRB assay. The dose–response curves (including those for MCF-7) are presented in Figure S22, and their relevant IC50 values are listed in Table 1. […] The differential activity between meta- and para-3-arylisoquinolinones was reproduced in the National Cancer Institute (NCI) one-dose screen using a panel of 59 cancer cell lines (Figure S23).
as §1, §2

A549 = experiment: SRB antiproliferative assay, A549; details: Homo sapiens, A549, 96 h treatment, mean ± SEM, read-out: IC50 A549
Procedure: as §3, §1, §2

HCT116 = experiment: SRB antiproliferative assay, HCT116; details: Homo sapiens, HCT-116, 96 h treatment, mean ± SEM, read-out: IC50 HCT116
Procedure: as §3, §1, §2

Compound | effect on cytoskeleton network (actin and microtubules) (HUVECs) | pIC50 (MCF-7) | pIC50 (MDA-MB-231) | pIC50 (A549) | pIC50 (HCT116)
O=c1[nH]c(-c2cccc(F)c2)cc2cc(F)ccc12 [compound 4, 6-Fluoro-3-(3-fluorophenyl)isoquinolin-1(2H)-one] | marked disruption in the cytoskeleton network |  |  |  | 
O=c1[nH]c(-c2ccc(F)cc2)cc2cc(F)ccc12 [compound 5, 6-Fluoro-3-(4-fluorophenyl)isoquinolin-1(2H)-one] |  | < 4.30 | < 4.30 | < 4.30 | < 4.30
